Laboratory results reported in patent US20130053381A1, “2,4-DIOXO-1,4-DIHYDRO-2H-QUINAZOLIN-3-YL-SULFONAMIDE DERIVATIVES” (NOVARTIS AG, priority 2010, published 2013).
Like-named read-outs stand apart in the source and are kept apart here.

Legend:
AMPA receptor = assay: [3H]CNQX binding test (AMPA-receptor binding); design: species or system rat
Method: CNQX binding test (Honore et al. Biochem. Pharmacol. 1989, 38: 3207-3212). This test is performed as follows.
Brain membranes: The animals are sacrificed, the brain removed and homogenized in 10 volumes of ice-cold 10% sucrose with a glass/Teflon homogenizer at positions 5 for 30 sec. The membranes are centrifuged at 1000×g for 10 min, and the supernatant centrifuged at 20,000×g for 15 min. The resulting pellet is resuspended in 10 volumes of cold water with a tissue homogenizer (Brinkman Polytron) at position 5 for 15 sec and the suspension centrifuged at 8000×g for 10 min. The supernatant including the buffy layer is centrifuged at 40,000×g for 20 min, the pellet resuspended in 5 volumes of water and the suspension frozen (20-30 min in dry ice/MeOH) and thawed (water-bath at 37° C.) twice. The suspension is centrifuged at 40,000×g for 20 min, the pellet resuspended in 50 mM HEPES/KOH, pH 7.5, and centrifuged at 40,000×g for 10 min. The final pellet is resuspended with a glass/Teflon homogenizer in 5 volumes of HEPES/KOH buffer; 2 mL aliquots are frozen and stored in liquid nitrogen.
Pretreatment of membranes: Membranes are thawed at 35° C. and once washed with 50 mM HEPES/KOH by centrifugation at 39,000×g for 10 min. The final pellet is resuspended with a glass/Teflon homogenizer in the same buffer.
Radioligand binding assay: It is performed using 96-well microtiterplates in a volume of 0.3 mL of 50 mM HEPES/KOH, pH 7.2, 100 μg membrane protein, 5 nM [^3H]-CNQX (NEN) and the compound to be tested. Incubation is performed at 4° C. for 40 min and the reaction is terminated by centrifugation (Sigma 4K10) at 3700×g for 30 min. The pellet is washed once with cold buffer and then dissolved in 0.02 mL of the tissue solubilizer Soluene for 20 min. Two hundred μL of the scintillation fluid Microscint 20 (Packard) are added and the radioactivity is counted in a Packard Topcount scintillation counter at an efficiency of 40-45%. Nonspecific binding is defined by 10 μM CNQX. Assays are performed in triplicate.

OF1 mice = assay: Maximal electroshock test (MES Test); type: in vivo; conditions: for responders at 50 mg/kg: p.o.
In short: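 Compound given p.o. (typically 50 mg/kg) 1 h before tonic-clonic convulsions were induced via temporal electrodes (50 Hz, 18 mA, 0.2 s); seizure lasting 3 s or less counted as protection. Read-out is percent protected of five mice per condition; ED50 calculated, blood exposure sampled after shock.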

[1] = Table 1A parent compounds, AMPA-receptor binding as described for Table 2, read-out: IC50
[2] = Table 2 parent compounds, rat, read-out: [3H]CNQX IC50 AMPA receptor binding, rat
[3] = Mus musculus, po, pre-treatment time −1 h, read-out: %-Protection

SMILES	IC50 (AMPA receptor; [1])	also measured
CCCOC(C)c1cc2c(=O)n(NS(C)(=O)=O)c(=O)[nH]c2cc1C(F)(F)F (stereo not drawn) [Example 22.0]	980 nM	–
CCOC(C)c1cc2c(=O)n(NS(C)(=O)=O)c(=O)[nH]c2cc1C(F)(F)F (stereo not drawn) [Example 17.0]	350 nM	–
CS(=O)(=O)Nn1c(=O)[nH]c2cc(C(F)(F)F)c(-n3ccnc3)cc2c1=O [Example 4.0, N-(6-imidazol-1-yl-2,4-dioxo-7-trifluoromethyl-1,4-dihydro-2H-quinazolin-3-yl)-methanesulfonamide]	–	IC50 (AMPA receptor; [2]): 42 nM; ED50 (OF1 mice; Mus musculus, ip, pre-treatment time −0.25 h (footnote g)): 10.7 mg/kg; responders at 50 mg/kg (OF1 mice; [3]): 0%; %-seizure protection (OF1 mice; single 50 mg/kg p.o. dose, 30 min after treatment, MES Test): 0%
CS(=O)(=O)Nn1c(=O)[nH]c2cc(C(F)(F)F)c(-n3cnnc3)cc2c1=O [Example 9.0, N-(2,4-dioxo-6-[1,2,4]triazol-4-yl-7-trifluoromethyl-1,4-dihydro-2H-quinazolin-3-yl)-methanesulfonamide]	–	IC50 (AMPA receptor; [2]): 46 nM; responders at 50 mg/kg (OF1 mice; Mus musculus, po, pre-treatment time −2 h (footnote a), read-out: %-Protection): 20%
CCc1cc2[nH]c(=O)n(NS(C)(=O)=O)c(=O)c2cc1-c1ccnn1CC [Example 13.0, N-[7-ethyl-6-(2-ethyl-2H-pyrazol-3-yl)-2,4-dioxo-1,4-dihydro-2H-quinazolin-3-yl]-methanesulfonamide]	–	IC50 (AMPA receptor; [2]): 341 nM; responders at 50 mg/kg (OF1 mice; [3]): 60%
CS(=O)(=O)Nn1c(=O)[nH]c2cc(C(F)(F)F)c(-c3ccnn3O)cc2c1=O [Example 31.0]	140 nM	–
CCOC(C)c1cc2c(=O)n(NS(C)(=O)=O)c(=O)[nH]c2cc1C(F)F (stereo not drawn) [Example 21.0]	900 nM	–
CCCCOC(C)c1cc2c(=O)n(NS(C)(=O)=O)c(=O)[nH]c2cc1C(F)(F)F (stereo not drawn) [Example 23.0]	760 nM	–
CCC(OC(C)C)c1cc2c(=O)n(NS(C)(=O)=O)c(=O)[nH]c2cc1C(F)(F)F (stereo not drawn) [Example 20.0]	380 nM	–
CC(C)n1nccc1-c1cc2c(=O)n(NS(C)(=O)=O)c(=O)[nH]c2cc1C(F)F [Example 6.0, N-[7-difluoromethyl-6-(2-isopropyl-2H-pyrazol-3-yl)-2,4-dioxo-1,4-dihydro-2H-quinazolin-3-yl]-methanesulfonamide]	–	IC50 (AMPA receptor; [2]): 110 nM; responders at 50 mg/kg (OF1 mice; [3]): 80%; responders at 25 mg/kg (OF1 mice; Mus musculus, po, Dose: 25 mg/kg, p.o. (footnote b), pre-treatment time −1 h, read-out: %-Protection): 20%
CC(C)n1nccc1-c1cc2c(=O)n(NS(C)(=O)=O)c(=O)[nH]c2cc1C(F)F [Example 35.0]	110 nM	–
CC(C)n1nccc1-c1cc2c(=O)n(NS(C)(=O)=O)c(=O)[nH]c2cc1CF [Example 33.0]	440 nM	–
CC(OC1CCCC1)c1cc2c(=O)n(NS(C)(=O)=O)c(=O)[nH]c2cc1C(F)(F)F (stereo not drawn) [Example 25.0]	540 nM	–
Cn1nccc1-c1cc2c(=O)n(NS(C)(=O)=O)c(=O)[nH]c2cc1C(F)(F)F [Example 1.0, N-[6-(2-methyl-2H-pyrazol-3-yl)-2,4-dioxo-7-trifluoromethyl-1,4-dihydro-2H-quinazolin-3-yl]-methanesulfonamide]	–	IC50 (AMPA receptor; [2]): 208 nM; responders at 50 mg/kg (OF1 mice; [3]): 20%
COC(C)c1cc2c(=O)n(NS(C)(=O)=O)c(=O)[nH]c2cc1C(F)(F)F (stereo not drawn) [Example 16.0]	390 nM	–
CS(=O)(=O)Nn1c(=O)[nH]c2cc(C(F)(F)F)c(-n3cccc3)cc2c1=O [Example 8.0, N-(2,4-dioxo-6-pyrrol-1-yl-7-trifluoromethyl-1,4-dihydro-2H-quinazolin-3-yl)-methanesulfonamide]	–	IC50 (AMPA receptor; [2]): 162 nM; responders at 50 mg/kg (OF1 mice; [3]): 40%
CC(C)OC(C)c1cc2c(=O)n(NS(C)(=O)=O)c(=O)[nH]c2cc1C(F)(F)F (stereo not drawn) [Example 18.0]	320 nM	–
CCC(O)c1cc2c(=O)n(NS(C)(=O)=O)c(=O)[nH]c2cc1C(F)(F)F (stereo not drawn) [Example 12.0, N-[6-(1-hydroxy-propyl)-2,4-dioxo-7-trifluoromethyl-1,4-dihydro-2H-quinazolin-3-yl]-methanesulfonamide]	–	IC50 (AMPA receptor; [2]): 162 nM; responders at 50 mg/kg (OF1 mice; [3]): 40%
CCCOC(CC)c1cc2c(=O)n(NS(C)(=O)=O)c(=O)[nH]c2cc1C(F)(F)F (stereo not drawn) [Example 19.0]	520 nM	–
CS(=O)(=O)Nn1c(=O)[nH]c2cc(C(F)(F)F)c(C3CCOC3)cc2c1=O (stereo not drawn) [Example 30.0]	220 nM	–
COC(c1cc2c(=O)n(NS(C)(=O)=O)c(=O)[nH]c2cc1C(F)(F)F)C(C)C (stereo not drawn) [Example 28.0]	1040 nM	–
CS(=O)(=O)Nn1c(=O)[nH]c2cc(C(F)(F)F)c(C3CCCCO3)cc2c1=O (stereo not drawn) [Example 29.0]	1080 nM	–
CC(C)COC(C)c1cc2c(=O)n(NS(C)(=O)=O)c(=O)[nH]c2cc1C(F)(F)F (stereo not drawn) [Example 24.0]	1810 nM	–
COCCn1nccc1-c1cc2c(=O)n(NS(C)(=O)=O)c(=O)[nH]c2cc1C(F)(F)F [Example 32.0]	310 nM	–
CCOC(CC)c1cc2c(=O)n(NS(C)(=O)=O)c(=O)[nH]c2cc1C(F)(F)F (stereo not drawn) [Example 26.0]	510 nM	–
CCCC(OC)c1cc2c(=O)n(NS(C)(=O)=O)c(=O)[nH]c2cc1C(F)(F)F (stereo not drawn) [Example 27.0]	720 nM	–
Cn1nccc1-c1cc2c(=O)n(NS(C)(=O)=O)c(=O)[nH]c2cc1C(F)F [Example 34.0]	260 nM	–

Second part, led by results:

IC50 (AMPA receptor; [1])	SMILES	also measured
560 nM	CC(C)c1cc2[nH]c(=O)n(NS(C)(=O)=O)c(=O)c2cc1-c1ccnn1[C@@H]1CCOC1 [Example 45.0]	–
1200 nM	CS(=O)(=O)Nn1c(=O)[nH]c2cc(C(F)(F)F)c(-c3ccnn3C3CCCC3)cc2c1=O [Example 46.0]	–
220 nM	CC(F)c1cc2[nH]c(=O)n(NS(C)(=O)=O)c(=O)c2cc1-c1ccnn1C(C)C (stereo not drawn) [Example 42.0]	–
770 nM	Cn1nccc1-c1cc2c(=O)n(NS(C)(=O)=O)c(=O)[nH]c2cc1CF [Example 39.0]	–
580 nM	Cn1nccc1-c1cc2c(=O)n(NS(C)(=O)=O)c(=O)[nH]c2cc1C(C)(F)F [Example 41.0]	–
1850 nM	CCOC(C)c1cc2c(=O)n(NS(C)(=O)=O)c(=O)[nH]c2cc1CC (stereo not drawn) [Example 50.0]	–
370 nM	CS(=O)(=O)Nn1c(=O)[nH]c2cc(C(F)(F)F)c([C@H]3CO[C@@H](CO)C3)cc2c1=O [Example 47.0]	–
470 nM	CS(=O)(=O)Nn1c(=O)[nH]c2cc(C(F)(F)F)c(-c3ccn[nH]3)cc2c1=O [Example 38.0]	–
210 nM	CC(C)n1nccc1-c1cc2c(=O)n(NS(C)(=O)=O)c(=O)[nH]c2cc1C(C)(F)F [Example 40.0]	–
780 nM	CC(OCc1ccccc1)c1cc2c(=O)n(NS(C)(=O)=O)c(=O)[nH]c2cc1C(F)(F)F (stereo not drawn) [Example 51.0]	–
320 nM	COCCn1nccc1-c1cc2c(=O)n(NS(C)(=O)=O)c(=O)[nH]c2cc1C(C)C [Example 36.0]	–
430 nM	CC(C)c1cc2[nH]c(=O)n(NS(C)(=O)=O)c(=O)c2cc1-c1ccnn1C(C)C [Example 37.0]	–
700 nM	CC(F)c1cc2[nH]c(=O)n(NS(C)(=O)=O)c(=O)c2cc1-c1ccnn1C (stereo not drawn) [Example 43.0]	–
520 nM	C[C@@H]1COC[C@@H]1c1cc2c(=O)n(NS(C)(=O)=O)c(=O)[nH]c2cc1C(F)(F)F [Example 48.0]	–
3500 nM	CC(C)c1cc2[nH]c(=O)n(NS(C)(=O)=O)c(=O)c2cc1-c1ccnn1-c1ccccc1 [Example 49.0]	–
2200 nM	CC(C)c1cc2[nH]c(=O)n(NS(C)(=O)=O)c(=O)c2cc1C1CCOC1 (stereo not drawn) [Example 44.0]	–
1120 nM	CC(OCC(F)(F)F)c1cc2c(=O)n(NS(C)(=O)=O)c(=O)[nH]c2cc1C(F)(F)F (stereo not drawn) [Example 52.0]	–
